Reference: patent publication US4229443A, “Derivatives of penicillanic acid” (Leo Pharmaceutical Products, Ltd. A/S, priority 1976, dated 1980)
≈ marks a conversion by molar mass, not a printed value. Counter-ions that a name gives are not always drawn.

What was measured:
Assay type in all cases: cell-based
E.coli HA 2 Leo strain = experiment: Antibacterial activity, 50% inhibition of growth, E.coli HA 2 Leo strain; details: Escherichia coli, HA2LEOSTRAIN, read-out: IC50 (concentration required for a 50% inhibition of growth)
Source text: (§1) In the table below the antibacterial activity of the compound of Example 1, the 6-[4'-(3"-aminopropyl)-1'-piperidyl-methyleneamino]penicillanic acid hydrochloride, in the table called EB 686, is compared to that of the known compounds Ampicillin and Mecillinam (a compound of the above mentioned British Pat. No. 1,293,590).
(§2) *IC50 means the concentration required for a 50% inhibition of […]

[1] = tested on: Enterobacter cloacae P 99; experiment: Antibacterial activity, 50% inhibition of growth, Enterobacter cloacae P 99; details: P99, read-out: IC50 (concentration required for a 50% inhibition of growth)
Source text: as §1, §2

[2] = tested on: Salmonella cholerasuis NCTC 5735; experiment: Antibacterial activity, 50% inhibition of growth, Salmonella cholerasuis NCTC 5735; details: NCTC5735, read-out: IC50 (concentration required for a 50% inhibition of growth)
Source text: as §1, §2

[3] = tested on: Pseudomonas aeruginosa PS 18s; experiment: Antibacterial activity, 50% inhibition of growth, Pseudomonas aeruginosa PS 18s; details: PS18S, read-out: IC50 (concentration required for a 50% inhibition of growth)
Source text: as §1, §2

[4] = tested on: Klebsiella pneumoniae AT CC 10273; experiment: Antibacterial activity, 50% inhibition of growth, Klebsiella pneumoniae AT CC 10273; details: ATCC10273, read-out: IC50 (concentration required for a 50% inhibition of growth)
Source text: as §1, §2

[5] = tested on: Salmonella typhimurium NCTC 5710; experiment: Antibacterial activity, 50% inhibition of growth, Salmonella typhimurium NCTC 5710; details: Salmonella enterica, read-out: IC50 (concentration required for a 50% inhibition of growth)
Source text: as §1, §2

[6] = tested on: Pseudomonas aeruginosa BA 2 Leo strain; experiment: Antibacterial activity, 50% inhibition of growth, Pseudomonas aeruginosa BA 2 Leo strain; details: BA2LEOSTRAIN, read-out: IC50 (concentration required for a 50% inhibition of growth)
Source text: as §1, §2

E.coli W3110 (RTEM) = experiment: Antibacterial activity, 50% inhibition of growth, E.coli W3110 (RTEM); details: Escherichia coli, read-out: IC50 (concentration required for a 50% inhibition of growth)
Source text: as §1, §2

| Compound | IC50 (E.coli HA 2 Leo strain) | IC50 [1] | IC50 [2] | IC50 [3] | IC50 [4] | IC50 [5] | IC50 [6] | IC50 (E.coli W3110 (RTEM)) |
| --- | --- | --- | --- | --- | --- | --- | --- | --- |
| CC1(C)S[C@@H]2[C@H](NC(=O)[C@H](N)c3ccccc3)C(=O)N2[C@H]1C(=O)O [Ampicillin] | 1.3 µg/mL (≈ 3.72 µM) | > 100 µg/mL | 0.25 µg/mL (≈ 0.715 µM) | 50 µg/mL (≈ 143 µM) | 79 µg/mL (≈ 226 µM) | 0.4 µg/mL (≈ 1.14 µM) | > 100 µg/mL | > 100 µg/mL |
| CC1(C)S[C@@H]2[C@H](N=CN3CCC(CCCN)CC3)C(=O)N2[C@H]1C(=O)O [EB 686, 6-[4'-(3"-aminopropyl)-1'-piperidyl-methyleneamino]-penicillanic acid monohydrochloride] | 0.016 µg/mL | 0.02 µg/mL | 0.0063 µg/mL | 5 µg/mL | 0.04 µg/mL | 0.016 µg/mL | 16 µg/mL | 0.5 µg/mL |
| CC1(C)S[C@@H]2[C@H](N=CN3CCC(CCCN=[N+]=[N-])CC3)C(=O)N2[C@H]1C(=O)O [Example 1D, 6-[4'-(3"-azidopropyl)-1'-piperidyl-methyleneamino]-penicillanic acid] | 0.04 µg/mL (≈ 0.101 µM) |  |  |  |  | 0.5 µg/mL (≈ 1.27 µM) |  |  |
| CC1(C)S[C@@H]2[C@H](N=CN3CCC(CN=[N+]=[N-])CC3)C(=O)N2[C@H]1C(=O)O [Example 2D, 6-[4'-azidomethyl-1'-piperidyl-methyleneamino]-penicillanic acid] | 0.05 µg/mL (≈ 0.136 µM) |  |  |  |  | 0.2 µg/mL (≈ 0.546 µM) |  |  |
| CC(C)(C)C(=O)OCOC(=O)[C@@H]1N2C(=O)[C@@H](N=CN3CCCC(C(CN)CN)CC3)[C@H]2SC1(C)C (stereo partly shown) [Example 28F, Pivaloyloxymethyl 6-[(4'-(1",3"-diaminopropyl-2")-hexahydro-1'H-azepin-1'-yl)-methyleneamino]-penicillanate, trihydrochloride] | 0.05 µg/mL |  |  |  |  | 0.05 µg/mL | 20 µg/mL |  |
| CC1(C)S[C@@H]2[C@H](/N=C/N3CCCCCC3)C(=O)N2[C@H]1C(=O)O [Mecillinam] | 0.016 µg/mL (≈ 0.0492 µM) | 0.1 µg/mL (≈ 0.307 µM) | 0.05 µg/mL (≈ 0.154 µM) | > 100 µg/mL | ~1 µg/mL (≈ 3.07 µM) | 0.05 µg/mL (≈ 0.154 µM) | > 100 µg/mL | 2 µg/mL (≈ 6.15 µM) |
